In paper PMC6161789, “Modeling and antitumor studies of a modified L–penetratin peptide targeting E2F in lung cancer and prostate cancer” (Oncotarget, 2018):
Ends that are not written are not given here.

What was measured:
DU145 cells = assay: Stability testing of the peptide in RPMI 1640 with 10% FBS, read out by DU145 cell viability; assay type: in vitro ADME, human; conditions: pre-incubation in RPMI 1640 with 10% FBS, 37°C, 24 hours; then 24 hours on DU145 cells, MTS 490 nm, triplicate
Procedure: Figure 4 A. D- Arg Peptide incubated in 10% FBS RPMI media at 37°C for 24 hours is resistant to proteolysis; it is as effective as the non-incubated D- Arg Peptide in DU145 cells. D- Arg Peptide was incubated in RPMI media containing 10% FBS at 37°C for 24 hours. DU145 cells were seeded in a 96 well plate at 5000 cells in each well. After 24 hours either the incubated D- Arg Peptide or the non-incubated D- Arg Peptide was added to the cells. B. D- Arg and L-Arg Peptide incubated in 10% FBS RPMI media at 37°C for 24 hours. DU145 cells were seeded in a 96 well plate at 5000 cells in each well. After 24 hours either the incubated D- Arg Peptide or the L- Arg Peptide was added to the cells. The cell viability in both experiments were assessed after another 24 hours by measuring the absorption at 490nm using the MTS tetrazolium Promega CellTitre 96® Aqueous One Solution Cell proliferation assay according to the manufacturer’s instructions. Each time point was done in triplicate and values are represented by mean with standard mean deviation.
The peptide was mixed with the RPMI 1640 medium containing 10% FBS and incubated at 37 °C for 24 hours. Cells were plated in a 96 well plate in 180 μl of the media containing 10% FBS. After 24 hours, 20 μl of either the incubated D- Arg or the regular (fresh) D- Arg Peptide was added to the cell plate and tested after another 24 hours. Then 20 μl of the MTS tetrazolium Promega CellTitre 96® Aqueous One Solution Cell Proliferation Assay was added to each well and incubated for two to three hours. Absorbance was measured at 490 nm as per the manufacturer’s protocol to determine the cell viability.

Burkitt lymphoma cells = conditions: cited from earlier work
Text: (§1) This unique E2F1 inhibitory peptide with the sequence His-His-His-Arg-Leu-Ser-His, found by phage display, was discovered by its ability to bind tightly to an immobilized consensus E2F1 promoter sequence. Importantly, treatment of tumor xenografts of human small cell lung cancer H69 and human prostate cancer DU14 ...

[1] = system: DU145 prostate cancer cells; conditions: cited from earlier work
Text: as §1

[2] = system: pRB negative small cell lung cancer (SCLC) cells; conditions: cited from earlier work
Text: as §1

[3] = system: consensus E2F1 promoter sequence; conditions: found by phage display; cited from earlier work
Text: as §1

CC[C@H](C)[C@H](NC(=O)[C@H](CCCCN)NC(=O)[C@@H](NC(=O)[C@H](CCC(N)=O)NC(=O)[C@@H](N)CCCNC(=N)N)[C@@H](C)CC)C(=O)N[C@@H](Cc1c[nH]c2ccccc12)C(=O)N[C@@H](Cc1ccccc1)C(=O)N[C@@H](CCC(N)=O)C(=O)N[C@@H](CC(N)=O)C(=O)N[C@@H](CCCNC(=N)N)C(=O)N[C@@H](CCCNC(=N)N)C(=O)N[C@@H](CCSC)C(=O)N[C@@H](CCCCN)C(=O)N[C@@H](Cc1c[nH]c2ccccc12)C(=O)N[C@@H](CCCCN)C(=O)N[C@@H](CCCCN)C(=O)N[C@@H](Cc1c[nH]cn1)C(=O)N[C@@H](Cc1c[nH]cn1)C(=O)N[C@@H](Cc1c[nH]cn1)C(=O)N[C@H](CCCNC(=N)N)C(=O)N[C@@H](CC(C)C)C(=O)N[C@@H](CO)C(=O)N[C@@H](Cc1c[nH]cn1)C(=O)O [D-Arg PEP]
Stability in serum: incubated D- Arg versus incubated L- Arg peptide (DU145 cells): more resistant to proteolysis after pre-incubation in serum | Stability: toxicity of pre-incubated versus fresh non-incubated peptide (DU145 cells): as potent as the non-incubated fresh D- Arg PEP

CC[C@H](C)[C@H](NC(=O)[C@H](CCCCN)NC(=O)[C@@H](NC(=O)[C@H](CCC(N)=O)NC(=O)[C@@H](N)CCCNC(=N)N)[C@@H](C)CC)C(=O)N[C@@H](Cc1c[nH]c2ccccc12)C(=O)N[C@@H](Cc1ccccc1)C(=O)N[C@@H](CCC(N)=O)C(=O)N[C@@H](CC(N)=O)C(=O)N[C@@H](CCCNC(=N)N)C(=O)N[C@@H](CCCNC(=N)N)C(=O)N[C@@H](CCSC)C(=O)N[C@@H](CCCCN)C(=O)N[C@@H](Cc1c[nH]c2ccccc12)C(=O)N[C@@H](CCCCN)C(=O)N[C@@H](CCCCN)C(=O)N[C@@H](Cc1c[nH]cn1)C(=O)N[C@@H](Cc1c[nH]cn1)C(=O)N[C@@H](Cc1c[nH]cn1)C(=O)N[C@@H](CCCNC(=N)N)C(=O)N[C@@H](CC(C)C)C(=O)N[C@@H](CO)C(=O)N[C@@H](Cc1c[nH]cn1)C(=O)O [L-Arg PEP]
Stability in serum: incubated D- Arg versus incubated L- Arg peptide (DU145 cells): unstable in serum | Cytotoxicity (Burkitt lymphoma cells): cytotoxic at low micro molar concentrations | Cytotoxicity [1]: cytotoxic at low micro molar concentrations | Cytotoxicity [2]: cytotoxic at low micro molar concentrations

HHHRLSH [E2F1 inhibitory peptide, 7-mer peptide His-His-His-Arg-Leu-Ser-His found by phage display]
Binding to immobilized consensus E2F1 promoter sequence [3]: bind tightly
